In ChEMBL document CHEMBL1201862, “PubChem BioAssay data set” (2004):
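Tested at 5 concentrations; 48 h exposure; 96-well plates; endpoints linearly interpolated, else capped at highest concentration. At the GI50, growth is halved.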 Activity calls are given as the source filed them. Rule as the data show it: active = GI50 up to about 1.1 µM and inactive = higher.

Key:
Test in all cases: NCI tumour cell line growth inhibition, 48 h
[1] = system: RXF 631
[2] = system: DMS-273
[3] = system: Hs-578T
[4] = system: T47D
[5] = system: MDA-MB-435
[6] = system: MDA-N

Measured: GI50

O=[N+]([O-])c1ccc(-c2ccc(-c3csc(Nc4ccccn4)n3)o2)cc1
inactive: [1] 35.4 µM | [2] 35.2 µM

Cc1nn(C(=O)Cc2ccccc2)c2c1C(c1ccc3ccccc3c1O)SC(=N)N2 (stereo unspecified)
inactive: [3] > 100 µM | [4] > 100 µM | [5] > 100 µM | [6] > 100 µM
